The record followed here is patent publication US20200239530A1, “COMPOUNDS AND METHODS OF MODULATING PROTEIN DEGRADATION” (Vividion Therapeutics, Inc., priority 2017, published 2020).

Assay in all cases: Cysteine liganding, probe competition
Common to all, as to assay type: binding

Experiment [1] has as its target T1, NT5DC2 5-nucleotidase domain-containing protein 2 (Homo sapiens, UniProt Q9H857).
T1 construct: Cells were resuspended in cold PBS on ice and sonicated with a probe sonicator to achieve lysis; endogenous in cells
The essentials:
(§1)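 Steps: sonicate cells in cold PBS; treat 5 mg/ml lysate with compound (25° C, 1 hr); add desthiobiotin iodoacetamide probe from a 10 mM stock (25° C, 1 hr); precipitate, reduce, alkylate, digest with trypsin; capture labelled peptides on streptavidin for analysis.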

Experiment [2] addresses T2, KEAP1 Kelch-like ECH-associated protein 1 (Homo sapiens, UniProt Q14145).
T2 construct: Cells were resuspended in cold PBS on ice and sonicated with a probe sonicator to achieve lysis; endogenous in cells
The note with it: KEAP1 Res# 288, uniprot Q14145. In outline: as §1

In experiment [3] the target is T3, ZNF638 Zinc finger protein 638 (Homo sapiens, UniProt Q14966).
T3 construct: Cells were resuspended in cold PBS on ice and sonicated with a probe sonicator to achieve lysis; endogenous in cells
In outline:
as §1

Experiment [4] has as its target T4, MYCBP2 E3 ubiquitin-protein ligase MYCBP2 (Homo sapiens, UniProt O75592).
T4 construct: Cells were resuspended in cold PBS on ice and sonicated with a probe sonicator to achieve lysis; endogenous in cells
In outline:
as §1

The target in experiment [5] is T5, DTL Denticleless protein homolog (Homo sapiens, UniProt Q9NZJ0).
T5 construct: Cells were resuspended in cold PBS on ice and sonicated with a probe sonicator to achieve lysis; endogenous in cells
T5 sequence (Q9NZJ0 whole entry): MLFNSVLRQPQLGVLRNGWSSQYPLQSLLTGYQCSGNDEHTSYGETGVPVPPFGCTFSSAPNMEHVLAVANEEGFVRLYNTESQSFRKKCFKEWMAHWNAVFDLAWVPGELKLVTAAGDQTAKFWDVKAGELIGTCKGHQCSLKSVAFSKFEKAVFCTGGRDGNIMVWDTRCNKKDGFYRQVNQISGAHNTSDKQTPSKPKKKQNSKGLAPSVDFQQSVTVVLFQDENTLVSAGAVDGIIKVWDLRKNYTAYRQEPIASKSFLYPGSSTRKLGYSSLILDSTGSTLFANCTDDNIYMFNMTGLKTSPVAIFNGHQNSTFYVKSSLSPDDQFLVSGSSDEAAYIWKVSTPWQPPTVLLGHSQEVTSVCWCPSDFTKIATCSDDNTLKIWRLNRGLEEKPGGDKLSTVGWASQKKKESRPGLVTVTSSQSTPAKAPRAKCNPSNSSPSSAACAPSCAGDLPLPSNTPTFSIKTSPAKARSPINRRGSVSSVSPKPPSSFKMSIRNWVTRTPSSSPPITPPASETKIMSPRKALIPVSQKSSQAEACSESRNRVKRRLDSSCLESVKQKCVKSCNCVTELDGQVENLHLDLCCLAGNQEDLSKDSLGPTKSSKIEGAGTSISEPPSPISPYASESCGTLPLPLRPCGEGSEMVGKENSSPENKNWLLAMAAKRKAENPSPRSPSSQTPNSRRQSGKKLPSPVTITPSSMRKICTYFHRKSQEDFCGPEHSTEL
In outline:
as §1

In experiment [6] the target is T6, GFM1 Elongation factor G, mitochondrial (Homo sapiens, UniProt Q96RP9).
T6 construct: Cells were resuspended in cold PBS on ice and sonicated with a probe sonicator to achieve lysis; endogenous in cells
The note with it: GFM1 Res# 146, uniprot Q96RP9. The essentials: as §1

For experiment [7], the target named is T7, TNF receptor-associated factor 6 (TRAF6) (Homo sapiens, UniProt Q9Y4K3).
T7 construct: Cells were resuspended in cold PBS on ice and sonicated with a probe sonicator to achieve lysis; endogenous in cells
To be noted: read-out: percent_inhibition. The essentials:
as §1

Experiment [8] deals with T8, B-cell lymphoma 6 protein (BCL6) (Homo sapiens, UniProt P41182).
T8 construct: Cells were resuspended in cold PBS on ice and sonicated with a probe sonicator to achieve lysis; endogenous in cells
The essentials:
as §1

Experiment [9] addresses T9, CTSC Dipeptidyl peptidase 1 (Homo sapiens, UniProt P53634).
T9 construct: 200 μL of lysate containing 5 mg/ml proteome was treated with 2 μL of 100× compound stock; endogenous in cells
The essentials:
as §1

In experiment [10] the target is T10, AMMECR1L AMMECR1-like protein (Homo sapiens, UniProt Q6DCA0).
T10 construct: 200 μL of lysate containing 5 mg/ml proteome was treated with 2 μL of 100× compound stock; endogenous in cells
T10 sequence (Q6DCA0 whole entry): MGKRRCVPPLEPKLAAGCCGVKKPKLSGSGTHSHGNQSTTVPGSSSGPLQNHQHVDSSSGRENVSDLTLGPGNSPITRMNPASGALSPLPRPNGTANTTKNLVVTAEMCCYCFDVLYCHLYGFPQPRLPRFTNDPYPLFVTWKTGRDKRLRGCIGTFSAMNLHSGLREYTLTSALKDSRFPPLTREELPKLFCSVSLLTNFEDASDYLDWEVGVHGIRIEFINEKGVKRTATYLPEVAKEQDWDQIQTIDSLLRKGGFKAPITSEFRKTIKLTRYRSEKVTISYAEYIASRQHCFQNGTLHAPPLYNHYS
In outline: as §1

For experiment [11], the target named is T11, GCN1L1 Translational activator GCN1 (Homo sapiens, UniProt Q92616).
T11 construct: 200 μL of lysate containing 5 mg/ml proteome was treated with 2 μL of 100× compound stock; endogenous in cells
T11 sequence (Q92616 whole entry): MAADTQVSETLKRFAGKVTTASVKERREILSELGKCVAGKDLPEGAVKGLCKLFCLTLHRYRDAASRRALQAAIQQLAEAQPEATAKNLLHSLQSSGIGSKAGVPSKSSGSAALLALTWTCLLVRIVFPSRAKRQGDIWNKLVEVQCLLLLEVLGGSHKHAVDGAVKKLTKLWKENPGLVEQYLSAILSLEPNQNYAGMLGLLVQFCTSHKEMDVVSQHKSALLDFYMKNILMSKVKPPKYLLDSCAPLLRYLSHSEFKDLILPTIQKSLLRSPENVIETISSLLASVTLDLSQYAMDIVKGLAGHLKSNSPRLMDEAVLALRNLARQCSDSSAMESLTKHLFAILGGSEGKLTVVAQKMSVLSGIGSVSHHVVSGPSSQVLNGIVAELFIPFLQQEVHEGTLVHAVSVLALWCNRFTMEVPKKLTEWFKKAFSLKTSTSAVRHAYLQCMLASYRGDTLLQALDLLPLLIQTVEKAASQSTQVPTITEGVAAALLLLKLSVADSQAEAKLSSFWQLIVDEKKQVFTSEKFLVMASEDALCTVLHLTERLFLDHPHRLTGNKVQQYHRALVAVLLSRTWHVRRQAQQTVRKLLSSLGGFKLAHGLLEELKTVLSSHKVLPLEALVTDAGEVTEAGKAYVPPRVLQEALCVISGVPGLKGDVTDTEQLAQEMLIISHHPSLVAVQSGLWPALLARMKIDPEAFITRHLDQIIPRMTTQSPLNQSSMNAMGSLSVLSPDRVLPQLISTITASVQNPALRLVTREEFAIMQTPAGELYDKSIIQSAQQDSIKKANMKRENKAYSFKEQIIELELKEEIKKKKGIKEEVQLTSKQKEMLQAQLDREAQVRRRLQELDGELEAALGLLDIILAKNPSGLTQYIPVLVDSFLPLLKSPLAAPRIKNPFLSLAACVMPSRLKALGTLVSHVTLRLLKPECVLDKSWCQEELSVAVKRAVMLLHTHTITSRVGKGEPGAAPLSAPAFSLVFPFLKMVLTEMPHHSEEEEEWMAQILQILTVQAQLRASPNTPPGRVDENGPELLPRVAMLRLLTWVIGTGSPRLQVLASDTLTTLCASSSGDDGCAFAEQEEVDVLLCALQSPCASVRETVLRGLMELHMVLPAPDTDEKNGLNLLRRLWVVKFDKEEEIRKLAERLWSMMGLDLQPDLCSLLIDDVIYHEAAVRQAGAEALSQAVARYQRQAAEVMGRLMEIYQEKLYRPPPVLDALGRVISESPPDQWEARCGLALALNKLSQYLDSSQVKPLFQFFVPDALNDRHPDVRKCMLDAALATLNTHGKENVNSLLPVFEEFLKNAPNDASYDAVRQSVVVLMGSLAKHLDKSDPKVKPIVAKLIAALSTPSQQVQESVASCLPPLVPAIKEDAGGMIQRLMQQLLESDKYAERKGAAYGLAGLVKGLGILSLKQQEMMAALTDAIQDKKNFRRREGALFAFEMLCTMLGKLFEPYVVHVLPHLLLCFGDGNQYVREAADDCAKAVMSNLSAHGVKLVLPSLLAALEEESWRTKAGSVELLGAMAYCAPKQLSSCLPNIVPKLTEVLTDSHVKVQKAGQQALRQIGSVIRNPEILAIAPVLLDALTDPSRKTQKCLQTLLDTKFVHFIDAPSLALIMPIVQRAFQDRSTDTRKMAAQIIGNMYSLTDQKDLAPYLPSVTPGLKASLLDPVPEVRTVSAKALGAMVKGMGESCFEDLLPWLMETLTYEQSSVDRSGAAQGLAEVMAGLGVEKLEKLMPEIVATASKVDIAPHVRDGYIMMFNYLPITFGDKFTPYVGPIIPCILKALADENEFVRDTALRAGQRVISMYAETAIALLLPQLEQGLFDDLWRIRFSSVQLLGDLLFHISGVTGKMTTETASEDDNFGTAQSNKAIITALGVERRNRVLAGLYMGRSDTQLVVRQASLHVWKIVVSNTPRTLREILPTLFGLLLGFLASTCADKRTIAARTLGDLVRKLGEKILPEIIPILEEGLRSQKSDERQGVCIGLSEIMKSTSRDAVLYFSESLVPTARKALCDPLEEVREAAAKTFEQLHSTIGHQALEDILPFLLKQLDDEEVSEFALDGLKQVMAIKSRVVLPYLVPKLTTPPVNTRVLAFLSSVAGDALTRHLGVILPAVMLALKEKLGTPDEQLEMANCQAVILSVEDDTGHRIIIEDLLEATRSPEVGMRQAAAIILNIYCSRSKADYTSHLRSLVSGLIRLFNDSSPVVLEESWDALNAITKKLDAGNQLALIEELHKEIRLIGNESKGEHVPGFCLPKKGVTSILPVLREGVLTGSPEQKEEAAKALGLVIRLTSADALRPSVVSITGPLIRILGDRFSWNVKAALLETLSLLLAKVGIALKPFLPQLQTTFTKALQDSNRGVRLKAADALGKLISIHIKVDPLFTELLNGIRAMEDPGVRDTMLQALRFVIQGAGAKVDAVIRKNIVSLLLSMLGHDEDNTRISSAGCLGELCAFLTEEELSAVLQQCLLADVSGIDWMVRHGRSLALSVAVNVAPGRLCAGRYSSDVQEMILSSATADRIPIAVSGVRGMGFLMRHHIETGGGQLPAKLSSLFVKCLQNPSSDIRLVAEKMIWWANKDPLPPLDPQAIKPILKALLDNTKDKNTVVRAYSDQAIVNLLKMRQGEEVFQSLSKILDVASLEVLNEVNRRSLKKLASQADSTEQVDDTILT
The essentials:
as §1

The target in experiment [12] is T12, INTS1 Integrator complex subunit 1 (Homo sapiens, UniProt Q8N201).
T12 construct: Cells were resuspended in cold PBS on ice and sonicated with a probe sonicator to achieve lysis; endogenous in cells
In outline:
as §1

T9 sequence (P53634 25-463): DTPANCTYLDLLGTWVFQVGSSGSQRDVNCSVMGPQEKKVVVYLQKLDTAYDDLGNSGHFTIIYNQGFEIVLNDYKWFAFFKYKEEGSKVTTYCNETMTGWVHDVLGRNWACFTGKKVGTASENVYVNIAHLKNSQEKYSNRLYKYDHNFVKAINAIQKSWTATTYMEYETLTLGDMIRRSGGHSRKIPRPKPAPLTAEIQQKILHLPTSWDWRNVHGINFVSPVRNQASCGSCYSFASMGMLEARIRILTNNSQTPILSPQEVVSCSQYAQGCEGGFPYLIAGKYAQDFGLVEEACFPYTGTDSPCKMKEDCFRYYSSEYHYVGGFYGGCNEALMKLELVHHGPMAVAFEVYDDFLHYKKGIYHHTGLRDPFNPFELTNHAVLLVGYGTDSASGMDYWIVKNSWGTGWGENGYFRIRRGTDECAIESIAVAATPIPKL
T1 sequence (Q9H857 whole entry, the tested form may be a part): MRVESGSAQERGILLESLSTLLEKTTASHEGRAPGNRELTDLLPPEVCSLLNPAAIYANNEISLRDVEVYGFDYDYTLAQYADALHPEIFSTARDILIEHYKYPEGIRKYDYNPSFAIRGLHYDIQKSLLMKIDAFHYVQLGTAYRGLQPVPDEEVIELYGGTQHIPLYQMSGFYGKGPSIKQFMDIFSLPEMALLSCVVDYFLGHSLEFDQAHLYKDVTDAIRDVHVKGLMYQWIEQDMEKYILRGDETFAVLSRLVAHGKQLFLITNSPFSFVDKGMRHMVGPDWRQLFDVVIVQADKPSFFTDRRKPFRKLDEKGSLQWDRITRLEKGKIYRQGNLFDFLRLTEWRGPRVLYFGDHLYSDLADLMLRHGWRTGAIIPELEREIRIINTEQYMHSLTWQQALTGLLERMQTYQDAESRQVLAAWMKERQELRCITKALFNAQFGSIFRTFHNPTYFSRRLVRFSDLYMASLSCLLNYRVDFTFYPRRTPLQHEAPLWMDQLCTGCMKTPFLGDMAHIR

With `COc1ccc2c(c1)CCCN2C(=O)CCl` [KB02], the Liganded entry was “YES” in [1] (NT5DC2 Res# 504, uniprot Q9H857); “YES” in experiment [1] (NT5DC2 Res# 507, uniprot Q9H857); “YES” in [2]; “YES” in experiment [3] (ZNF638 Res# 1023, uniprot Q14966); “YES” in experiment [3] (ZNF638 Res# 1026, uniprot Q14966); “YES” in experiment [4] (MYCBP2 Res# 1131, uniprot O75592). The Liganded result is reported as “YES” in [4] (MYCBP2 Res# 3152, uniprot O75592); “YES” in [5] (DTL Res# 136, uniprot Q9NZJ0); “YES” in experiment [5] (DTL Res# 141, uniprot Q9NZJ0); “YES” in experiment [6].

`C=CC(=O)N(c1ccccc1)c1ccc(Br)cc1` [KB05]: in [7], the inhibition at 500 µM came out at 31%. For the same molecule, the “KB05_100 uM_percent_inhibition” value in experiment [8] (100 uM) was determined as 7%. Moreover, the inhibition at 100 µM in [8] (read-out: KB05_100 uM_percent_inhibition) came out at 9%.

Regarding `O=C(CCl)Nc1cc(C(F)(F)F)cc(C(F)(F)F)c1` [KBO3], the Liganded entry in [9] (CTSC Res# 258, uniprot P53634) is reported as “YES”; in [10] (AMMECR1L Res# 153, uniprot Q6DCA0), “YES”; in experiment [11] (GCN1L1 Res# 648, uniprot Q92616) it was “YES”; in [12] (INTS1 Res# 1534, uniprot Q8N201), “YES”. The “100 Max” value is 76.05 in experiment [9] (uniprot P53634), 91.46 in experiment [10] (uniprot Q6DCA0), 28.59 in experiment [11] (uniprot Q92616) and 51.25 in experiment [12] (uniprot Q8N201). The 100 ave in experiment [9] (uniprot P53634) is on record as 76.05; in experiment [10] (uniprot Q6DCA0) it was 91.46; in [11] (uniprot Q92616) it was 25.61; in [12] (uniprot Q8N201), 36.495. In addition, the “500 Max” value in [9] (uniprot P53634) was determined as 95.44; in [10] (uniprot Q6DCA0) it was 85.74; in experiment [11] (uniprot Q92616), 80.3; in [12] (uniprot Q8N201), 77.65. Further, the 500 ave is 95.44 in experiment [9] (uniprot P53634), 85.74 in experiment [10] (uniprot Q6DCA0), 78.745 in experiment [11] (uniprot Q92616) and 70.05 in [12] (uniprot Q8N201).
